Paper PMC6703555 (Journal of medicinal chemistry, 2018)

What was measured:
[1] = human plasma
cancer cells = details: 2 hour exposure; cited from earlier work
in vitro = details: human, plasma, pH 7.5, half-life, 50% pooled human plasma in PBS
Vγ9Vδ2 T cells = details: 72 hour compound exposure, PBMCs; cited from earlier work
B30.2 domain of BTN3A1 = details: ITC; cited from earlier work

Structure (SMILES)	hydrolysis after two hours [1]	EC50 (cancer cells) [nM]	half-life (in vitro) [min]	EC50 (Vγ9Vδ2 T cells) [nM]	binding to the B30.2 domain of BTN3A1 (B30.2 domain of BTN3A1)
C/C(=C\CCP(=O)(OCOC(=O)C(C)(C)C)OCOC(=O)C(C)(C)C)CO [Compound 2]	more than 95%	1.2	~8	–	–
C/C(=C\CCP(=O)([O-])[O-])CO.[Na+].[Na+] [Compound 10]	–	–	–	4000	does bind
COP(=O)(CC/C=C(\C)CO)OC [Compound 11]	–	–	–	> 10000	–
C/C(=C\COP(=O)(O)OP(=O)(O)O)CO [HMBPP, (E)-4-hydroxy-3-methyl-but-2-enyl diphosphate]	–	19	–	–	–
